Assay results published in patent US20040023312A1, “Method for diagnosing huntingtons disease and means of treating it” (priority 2002, published 2004).
Like-named read-outs stand apart in the source and are kept apart here.

Assays:
adenyl cyclase = assay: cAMP levels stimulated by forskolin in ST14A parental cells and huntingtin clones; assay type: cell-based, rat
N548wt cells = assay: Serum-deprivation induced cell death (mitochondrial function); conditions: antagonist 100 nM, 24 h serum-free medium
From the text: Cell death has been induced by shifting cultures to serum-free medium in the absence (black columns) or presence of the indicated A2A receptor antagonists. Data are the mean±S.E. of 6 experiments run in triplicate and are expressed as % of total cell death. *p<0.05 vs. control, Scheffe's test.
To assess the functional importance of the aberrant A2A receptor phenotype and its possible correlation with susceptibility to cell death, we have performed experiments where the influence of A2A receptor antagonists on the survival rate of ST14A cells have been specifically determined.

[1] = focal ischaemia model; cited from earlier work
[2] = in vivo; cited from earlier work
A2A receptor = A2A receptor (Rattus norvegicus, UniProt P30543); conditions: for cAMP formation with NECA + antagonist: 100 nM NECA, ST14A cells
Chain of A2A receptor (P30543 whole entry): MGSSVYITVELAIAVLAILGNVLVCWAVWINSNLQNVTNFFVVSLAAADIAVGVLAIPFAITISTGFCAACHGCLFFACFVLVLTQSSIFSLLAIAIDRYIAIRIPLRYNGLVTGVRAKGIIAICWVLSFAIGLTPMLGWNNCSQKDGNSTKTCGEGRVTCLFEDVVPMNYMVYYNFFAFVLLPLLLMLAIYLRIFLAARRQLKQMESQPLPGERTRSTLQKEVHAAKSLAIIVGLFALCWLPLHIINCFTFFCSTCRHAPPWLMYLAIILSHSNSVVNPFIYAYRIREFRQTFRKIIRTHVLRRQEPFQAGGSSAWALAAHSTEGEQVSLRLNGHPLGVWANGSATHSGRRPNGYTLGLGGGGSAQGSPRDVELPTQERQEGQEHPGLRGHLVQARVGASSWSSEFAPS

G-proteins = assay: cAMP response induced by GTP-gammaS, a direct stimulator of G-proteins; assay type: cell-based, rat; conditions: 10 μM GTP-gammaS; parental clone
From the text: This concept is set down in the next page.

## C=C[C@@]1(C)CC(=O)[C@]2(O)[C@@]3(C)[C@@H](O)CCC(C)(C)[C@@H]3[C@H](O)[C@H](OC(C)=O)[C@@]2(C)O1 [Forskolin]
Adenyl cyclase; Forskolin 1 μM + Ro201724 0.5 mM, FL mu cells
  cyclic AMP levels stimulated by forskolin: 78 ± 7 pmoles/10^5 cells
Adenyl cyclase; Forskolin 1 μM + Ro201724 0.5 mM, FL wt cells
  cyclic AMP levels stimulated by forskolin: 60 ± 6 pmoles/10^5 cells
Adenyl cyclase; Forskolin 1 μM + Ro201724 0.5 mM, N548 wt cells
  cyclic AMP levels stimulated by forskolin: 63 ± 6 pmoles/10^5 cells
Adenyl cyclase; Forskolin 1 μM + Ro201724 0.5 mM, ST14A cells
  cyclic AMP levels stimulated by forskolin: 58 ± 4 pmoles/10^5 cells
Adenyl cyclase; Forskolin 1 μM, FL mu cells
  cyclic AMP levels stimulated by forskolin: 55 ± 5 pmoles/10^5 cells
Adenyl cyclase; Forskolin 1 μM, FL wt cells
  cyclic AMP levels stimulated by forskolin: 54 ± 6 pmoles/10^5 cells
Adenyl cyclase; Forskolin 1 μM, N548 wt cells
  cyclic AMP levels stimulated by forskolin: 47 ± 3 pmoles/10^5 cells
Adenyl cyclase; Forskolin 1 μM, ST14A cells
  cyclic AMP levels stimulated by forskolin: 45 ± 5 pmoles/10^5 cells

## Nc1nc2c(cnn2CCc2ccccc2)c2nc(-c3ccco3)nn12 [SCH 58261, 5-amino-7-(2-phenylethyl)-2-(2-furyl)pyrazolo[4,3-e]-1,2,4-triazolo [1,5-c]pyrimidine]
N548wt cells
  effect on extent of serum-deprivation induced cell death: did not significantly affect
[1]
  cortical damage associated with occlusion of the middle cerebral artery: significantly reducing

## CCCCC#Cc1nc(N)c2ncn([C@@H]3O[C@H](C(=O)NCC)[C@@H](O)[C@H]3O)c2n1 [2-hexinyl-NECA]
[2]
  convulsions induced by pentyl-tetrazole: markedly reduces

## Cn1c(=O)c2c(ncn2C)n(C)c1=O [Caffeine, caffeine]
A2A receptor; antagonist 10 μM
  cAMP formation with NECA + antagonist: 30 ± 3 pmole/10^5 cells
A2A receptor; antagonist 100 μM
  cAMP formation with NECA + antagonist: 27 ± 3 pmole/10^5 cells
A2A receptor; antagonist 1 mM
  cAMP formation with NECA + antagonist: 24 ± 3 pmole/10^5 cells
A2A receptor; NECA 100 nM, parental clone and engineered clones
  antagonism of the increases in cAMP induced by NECA: completely antagonizing

## Nc1nc2c(ncn2[C@@H]2O[C@H](COP(=O)(O)OP(=O)(O)OP(O)(O)=S)[C@@H](O)[C@H]2O)c(=O)[nH]1 [GTP-gammaS]
G-proteins
  cAMP levels in the presence of GTP-gammaS: 65±2 pmoles/10^5 cells

## Nc1nc(NCCc2ccc(O)cc2)nc2nc(-c3ccco3)nn12 [ZM 241385, 4-[2-[[7-amino-2-(2-furyl)[1,2,4]triazolo[2,3-a][1,3,5]triazin-5-yl]amino]ethyl]phenol]
N548wt cells
  effect on extent of serum-deprivation induced cell death: did not significantly affect
